Laboratory results: US5691373A, “Nonpeptide endothelin antagonists I” (Warner-Lambert Company, priority 1995, dated 1997)
Like-named read-outs stand apart in the source and are kept apart here.

What was measured:
ETB = target: T1, ETB (Rattus norvegicus, UniProt P21451); settings: for inhibition at 10 µM: read-out: ERBA-B % inhibition
T1 sequence (P21451 27-442): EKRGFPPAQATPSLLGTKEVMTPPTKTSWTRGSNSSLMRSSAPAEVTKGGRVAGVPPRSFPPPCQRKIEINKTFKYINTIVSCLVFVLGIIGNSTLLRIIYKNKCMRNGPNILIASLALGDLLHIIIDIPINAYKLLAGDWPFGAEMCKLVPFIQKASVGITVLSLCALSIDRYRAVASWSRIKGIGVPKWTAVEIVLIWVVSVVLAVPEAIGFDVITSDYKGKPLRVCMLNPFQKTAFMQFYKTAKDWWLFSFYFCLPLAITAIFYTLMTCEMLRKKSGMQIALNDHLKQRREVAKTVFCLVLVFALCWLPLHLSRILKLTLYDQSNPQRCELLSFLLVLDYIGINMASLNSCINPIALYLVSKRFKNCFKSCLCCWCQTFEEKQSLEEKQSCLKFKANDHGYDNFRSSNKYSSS
Description: The tissue is made up of 20 mM tris(hydroxymethyl)aminomethane hydrochloride (Trizma) buffer, 2 mM ethylenediaminetetra acetate, 100 μM phenylmethylsulfonyl fluoride.
First, thaw one aliquot of frozen rat cerebellar membranes (2 mg protein in 0.5 mL). Next, add 0.5 mL membrane aliquot to 4.5 mL cold tissue buffer, polytron at 7,500 revolutions per minute for 10 seconds. Finally, dilute tissue suspension 1/100 (0.1 mL suspension+9.9 mL tissue buffer), polytron again, and place ice.
Mix in 150 μL of tissue to each tube, vortex briefly, then tap to force all liquids to bottom (total assay volume=250 μL). Then place the tubes in a 37° C. water bath for 2 hours.
Add 2.5 mL cold wash buffer (50 mM Trizma buffer) to each tube, filter, and then wash tube with additional 2.5 mL wash buffer and add to filter. Finally, wash filters with an additional 2.5 mL of cold wash buffer.
Count filters for radioactivity in gamma counter.

ETA = target: T2, ETA (Oryctolagus cuniculus, UniProt A5A8K3); settings: for inhibition at 10 µM: read-out: ERBA-A % inhibition
T2 sequence (A5A8K3 21-427): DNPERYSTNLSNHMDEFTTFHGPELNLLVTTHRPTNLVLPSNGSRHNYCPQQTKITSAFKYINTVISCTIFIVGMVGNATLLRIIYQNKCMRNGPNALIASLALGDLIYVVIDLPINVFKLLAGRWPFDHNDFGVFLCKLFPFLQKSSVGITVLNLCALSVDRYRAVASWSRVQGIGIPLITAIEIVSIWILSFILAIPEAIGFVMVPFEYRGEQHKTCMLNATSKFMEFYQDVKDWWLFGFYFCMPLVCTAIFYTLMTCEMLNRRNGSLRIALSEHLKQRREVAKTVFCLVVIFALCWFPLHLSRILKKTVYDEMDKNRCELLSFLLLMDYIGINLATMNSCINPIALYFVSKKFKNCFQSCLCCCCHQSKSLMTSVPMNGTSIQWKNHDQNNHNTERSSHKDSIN

[1] = read-out: ERBA-B IC50, [125I]-ET-1, rat cerebellar membranes
[2] = ERBA-A IC50, [125I]-ET-1, rabbit renal artery vascular smooth muscle cells

IC50 (ETB)	IC50 (ETA; [2])	Compound	other results
	2.8 µM	O=C1OC(O)(c2ccc(Cl)cc2)C(Cc2cccc3ccccc23)=C1c1ccc2c(c1)OCO2 (racemic) [Example 44, 2(5H)-Furanone) 3-(1,3-benzodioxol-5-yl)-5-(4-chlorophenyl)-5-hydroxy-4-(1-naphthalenylmethyl)-, (±)-]	inhibition at 10 µM (ETB): 35%
9.1 µM	1.5 µM	CC(C)c1ccc(CC2=C(c3ccc4c(c3)OCO4)C(=O)OC2(O)c2ccc(Cl)cc2)cc1 (racemic) [Example 45, 2(5H)-Furanone, 3-(1,3-benzodioxol-5-yl)-5-(4-chlorophenyl)-5-hydroxy-4-[[4-(1-methylethyl)phenyl]methyl]-, (35)-]	
6.4 µM	3.6 µM	O=C1OC(O)(c2ccc(Cl)cc2)C(Cc2ccc3c(c2)OCO3)=C1c1ccc2c(c1)OCO2 (racemic) [Example 46, 2(5H)-Furanone, 3-(1,3-benzodioxol-5-yl)-4-(1,3-benzodioxol-5-ylmethyl)-5-(4-chlorophenyl)-5-hydroxy-, (±)-]	
7.4 µM	2.4 µM	Cn1cc(CC2=C(c3ccc4c(c3)OCO4)C(=O)OC2(O)c2ccc(Cl)cc2)c2ccccc21 (racemic) [Example 66, 2 (5H)-Furanone, 3-(1,3-benzodioxol-5-yl)-5-(4-chlorophenyl)-5-hydroxy-4-[(1-methyl-1H-indol-3-yl)methyl], (±)-]	

Continued, molecule first:

Compound	IC50 (ETB)	IC50 (ETA; [2])	other results
CC(C)c1ccc(C2=C(Cc3ccccc3)C(O)(c3ccc(Cl)cc3)OC2=O)cc1 (racemic) [Example 4, 2(5H)-Furanone, 5-(4-chlorophenyl)-5-hydroxy-3-[4-(1-methylethyl)phenyl]-4-(phenylmethyl)- , (±)-]			inhibition at 10 µM (ETB): 52%; inhibition at 10 µM (ETA): 34%
CC(C)c1ccc(C2=C(Cc3ccc4ccccc4c3)C(O)(c3ccc(Cl)cc3)OC2=O)cc1 (racemic) [Example 41, 2(5H)-Furanone, 5-(4-chlorophenyl)-5-hydroxy-3-[4-(1-methylethyl)phenyl]-4-(2-naphthalenylmethyl)-, (±)-]	9 µM		inhibition at 10 µM (ETA): 37%
CC(C)c1ccc(C2=C(Cc3ccc4c(c3)OCO4)C(O)(c3ccc(Cl)cc3)OC2=O)cc1 (racemic) [Example 42, 2(5H)-Furanone, 4-(1,3-benzodioxol-5-ylmethyl)-5-(4-chlorophenyl)-5-hydroxy-3-[4-(1-methylethyl)phenyl]-, (±)-]			inhibition at 10 µM (ETB): 54%; inhibition at 10 µM (ETA): 36%
O=C1OC(O)(c2ccc(Cl)cc2)C(Cc2ccc3ccccc3c2)=C1c1ccc2c(c1)OCO2 (racemic) [Example 43, 2(5H)-Furanone, 3-(1,3-benzodioxol-5-yl)-5-(4-chlorophenyl)-5-hydroxy-4-(2-naphthalenylmethyl)-, (±)-]			IC50 (ETB; [1]): 7 µM; IC50 (ETA; read-out: ERBA-A IC50, [125I]-ET-1, rabbit renal artery vascular smooth muscle cells): 2.7 µM
O=C1OC(O)(c2ccc(Cl)cc2)C(Cc2ccccc2)=C1c1ccc(Cl)c(Cl)c1 (racemic) [Example 61, 2(5H)-Furanone, 5-(4-chlorophenyl)-3-(3,4-dichlorophenyl)-5-hydroxy-4-(phenylmethyl)-, (±)-]	11 µM	11 µM	
COc1ccc(C2=C(Cc3ccc4c(c3)OCO4)C(O)(c3ccc(Cl)cc3)OC2=O)cc1OC (racemic) [Example 65, 2(5H)-Furanone, 4-(1,3-benzodioxol-5-ylmethy)-5-(4-chlorophenyl)-3-(3,4-dimethoxyphenyl)-5-hydroxy, (±)-]	6 µM	9.3 µM	
COc1ccc(CC2=C(c3ccc4c(c3)OCO4)C(=O)OC2(O)c2ccc(OC)cc2)cc1 (stereo not shown) [Example 77, 3-Benzo[1,3]dioxol-5-yl-5-hydroxy-4-(4-methoxybenzyl)-5-(4-methoxyphenyl)-5 H-furan-2-one]			IC50 (ETB; [1]): 0.22 µM
COc1ccc(C2(O)OC(=O)C(c3ccc4c(c3)OCO4)=C2Cc2ccc(Cl)cc2)cc1 (stereo not shown) [Example 81, 3-Benzo[1,3]dioxol-5-yl-4-(4-chlorobenzyl)-5-hydroxy-5-(4-methoxophenyl)-5H -furan-2-one]			IC50 (ETB; [1]): 0.72 µM
